Measurements reported in patent US20100093611A1, “COMPOUNDS AND METHODS FOR TREATING OR PREVENTING AUTOIMMUNE DISEASES” (priority 2007, published 2010).

What was measured:
[1] = system: SLE-associated gene signature as induced by SLE serum; experiment: SLE serum-induced IFN-α gene signature in freshly isolated monocytes (HITS qPCR); format: cell-based, human; conditions: for Percentage inhibition of the six most robustly induced IFN-α signature genes induced by SLE serum: 1 μm, monocytes stimulated with 50% SLE patient serum, mean of six genes vs vehicle control; for Upregulation of the six most robustly induced IFN-α signature gene set by 50% lupus serum (in words): freshly isolated monocytes, dose dependent (FIG. 4)
Description: RNA from lysed cells was examined by qPCR analysis in HITS assay. […] Each bar represents the average+/−SEM of three independent experiments using serum from different SLE patients.
Stimulation of healthy donor PBMCs with serum isolated from SLE patients induces the up-regulation of IFN-α pathway-associated genes (Interfon-induced genes, IFIGs), such as MX1^31. Furthermore, expression of IFIG correlates with disease severity and organ involvement^31, 32. To further evaluate the role of small molecular inhibitors on the type I IFN gene signature, freshly isolated monocytes stimulated with 50% lupus serum were used in HITS assays. […] Importantly, these experiments were performed with SLE serum from patients with well characterized biochemical profiles.
SLE patient and control serum were purchased from Bioreclamation (Hicksville, N.Y.). IFN-α 2a was obtained from PBL Biomedical laboratories (Piscataway, N.J.). Fresh PBMCs from healthy donor were prepared by Ficoll-hypaque fraction according to the manufactory's instruction. Cells were cultured at 2×10^5 cells/0.1 ml in 96-well flat-bottomed plates in culture medium.
To determine the effect of compounds on gene expression, compounds and vehicle controls were pre-incubated with cells for 30 min at 37° C. before stimulation with 50% lupus serum or 100 IU/ml IFN-α 2a were incubated with PBMC. After 6 h stimulation, cells were lysed in Qiagen 2XTCL lysis buffer followed by HITS analysis (see FIG. 2).

[2] = system: CD80, CD123 and CD38 cell surface expression on monocytes; experiment: IFN-α induced primary human monocyte activation/differentiation, cell surface markers by FACS; format: cell-based; conditions: 500 IU/ml IFN-α, 48 h, FACS (FIG. 5)
Description: Freshly isolated monocytes from healthy donor were pre-incubated with compounds or vehicle control for 0.5 hour before stimulation with 500 IU/ml IFN-α. Cell surface expression of CD80, CD123 and CD38 was evaluated by FACS 48 h post-stimulation. Each bar represents the average+/−SEM of three independent experiments.
Since deregulated differentiation of DCs induced by IFN-α may be a critical contributing factor in SLE^13, the impact of Apicidin 1a, IKK2 inhibitor IV, and JAK inhibitors in DC differentiation was examined. Human monocytes were stimulated with IFN-α and the expression of CD38 CD80 and CD123 differentiation markers was monitored^33.
(§1) For monocyte differentiation assays, human monocytes were isolated from the blood of healthy donors according to manufactory's instructions (Miltenyi Biotec Inc; Auburn Calif.). 5×10^5 freshly prepared monocytes were pre-incubated with compounds or vehicle control for 30 min. Cells were then incubated in RPMI 1640 medium (Invitrogen, Carlsbad, Calif.) including 10% fetal calf serum (Invitrogen) supplemented with 500 IU/ml IFN-α 2a for 48 hr. Cell surface protein were stained with FITC-labeled anti-CD80, PE-labeled anti-CD123, PEcy7 labeled anti-CD38, APC cy7 labeled MHC class II (all BD, San Jose, Calif.) and analyzed on a FACS Calibur flow cytometer (BD). Cytokine and chemokine levels in supernatants from monocyte differentiation assays were measured using searchlight human cytokine array (Pierce Inc, Woburn, Mass.). (see FIG. 5)

IP-10 = experiment: IFN-α induced IP-10 secretion from human monocytes; format: cell-based; conditions: 500 IU/ml IFN-α, 48 h (FIG. 6A)
Description: (§2) Freshly isolated monocytes were treated with 500 IU/ml IFN-α with or without indicated compounds for 48 h. Supernatants were collected and MCP-1 and IP-10 levels were analyzed by Searchlight Inc. Percentage inhibition represents inhibition of the upregulation of chemokine induced by IFN-α compared to the vehicle control. Panel A: Effect of compounds on IP-10 secretion. Panel B: Effect of compounds on MCP-1 secretion. Each bar represents the average+/−SEM of three independent experiments. Panel C: IKK2 inhibitor IV blocked IFN-α induced IP-10 protein level in vivo. Female NZBW/F1 mice were treated with either antibody (i.p. injection 30 mg/kg) or IKK2 inhibitor (45 mg/kg BID) as described in materials and methods. Adenovirus-IFN-a (1×10^10 viral particles) was administrated i.v. at time 0. Samples were collected 6 h post-stimulation, IP-10 protein level was measured by ELISA. Data representative of two experiments.
(§3) Multiple chemokines, including monocyte chemo-attractant protein-1 (MCP-1) and activated T cell chemokine interferon inducible protein 10 (IP-10) regulate leukocytes migration and infiltration into inflammated organs^34. Expression of MCP-1 and IP-10 are elevated in serum of SLE patients^34, 35 and in monocytes of healthy donors stimulated in vitro by IFN-α^36. Consequently, the effect of Apicidin 1a, IKK2 inhibitor IV, and JAK inhibitors in IP-10 and MCP-1 expression induced by IFN-α from human monocytes was examined.
as §1, with “Cells were then incubated in RPMI 1640 medium (Invitrogen, Carlsbad, Calif.) including 10% fetal calf serum (Invitrogen) supplemented with 500 IU/ml IFN-α 2a for 48 hr.” left out, “(see FIG. 5)” left out

MCP-1 = experiment: IFN-α induced MCP-1 secretion from human monocytes; format: cell-based; conditions: 500 IU/ml IFN-α, 48 h (FIG. 6B)
Description: as §2, §3
as §1, with “Cells were then incubated in RPMI 1640 medium (Invitrogen, Carlsbad, Calif.) including 10% fetal calf serum (Invitrogen) supplemented with 500 IU/ml IFN-α 2a for 48 hr.” left out, “(see FIG. 5)” left out

HSV-1 = experiment: In vitro anti-viral assay, HSV-1/luciferase replication in Hep-2 cells with IFN-α; format: cell-based, Herpes Simplex Virus-1
Description: Hep-2 cells were seeded at 2×10^4 cells/well in 96 well plates. Cells were infected with HVS1 at an Multiplicity Of Infection (MOI) of 5 for 1 h at 37° C. 24 hours post-seeding. Virus was aspirated, cells were washed, and 200 μl of medium with or without IFN-α or compound were added as indicated. After 48 h, cells were washed, lysed and luciferase activity were measured according to the manufacturer's instructions. […] Each bar represents the mean+/−SEM of triplicates from one experiment.
Herpes Simplex Virus-1 (HSV-1) represents one of the major recurrent virus infections observed in SLE patients^37. Type-I and Type-II IFN signals are known to block HSV-1 dissemination in mice^38, and as a consequence, a therapeutic approach that neutralizes their combined activity may constitute an important safety concern. Therefore, the impact of Apicidin 1a, IKK2 inhibitor IV, and JAK inhibitors on HSV-1 replication regulated by IFN-α in Hep-2 cells was examined in vitro. HSV-1/luciferase was used to infect Hep-2 cells, and viral replication was monitored by luciferase expression.
Hep-2 cells were propagated in MEM (Invitrogen) with 10% fetal bovine serum. HSV-1 recombination virus with both firefly and Renilla luciferase genes in a divergent orientation from a single multiple cloning site were a gift from Dr. Leib's lab. Hep-2 cells were seeded at 2×10^4 cells/well in 96 well plate, 24 h post seeding, cells were infected with virus at an MOI of 5, after absorption for 1 h at 37° C., free viral particles were removed by aspiration, cells were washed, and 200 μl medium containing IFN-α with or without test compounds. After 48 h incubation, cells were washed and lysed in 20 μl of Passive Lysis Buffer (Promega Inc; Madison, Wis.) frozen, thawed, and assayed for firefly and Renilla luciferase activity using the Dual Luciferase Assay kit (Promega).

SMILES | Percentage inhibition of the six most robustly induced IFN-α signature genes induced by SLE serum [1] [%] | Upregulation of the six most robustly induced IFN-α signature gene set by 50% lupus serum (in words) [1] | CD38 expression [2] | CD80 expression [2] | CD123 expression [2] | Expression of IP-10 induced by IFN-α (IP-10) | MCP-1 expression induced by IFN-α (MCP-1) | Effect on anti-viral effects of IFN-α at low dose (HSV-1; HSV-1, 0.1 μm (FIG. 7C)) | IFN-α dependent anti-viral activity at higher dose (HSV-1; HSV-1, higher dose where MCP-1 production is inhibited (FIG. 7C)) | Effect on IFN-α dependent anti-viral activity (HSV-1 replication) (HSV-1; MOI 5, 48 h, even at higher doses (FIG. 7A, 7B))
CCC(=O)CCCCC[C@@H]1NC(=O)[C@H]2CCCCN2C(=O)C([C@@H](C)CC)NC(=O)[C@H](Cc2cn(OC)c3ccccc23)NC1=O (some centres unmarked) [Compound 2, Apicidin] | 80 | blocked the upregulation | limited to the highest dose of 1 μM | blocks CD80 expression | limited to the highest dose of 1 μM | no neutralization | totally neutralizes MCP-1 expression | inhibited anti-viral effects of IFN-α | abolished or viral growth was actually promoted | 
NC(=O)Nc1sc(-c2ccc(F)cc2)cc1C(N)=O [Compound 5, IKK-2 Inhibitor IV] | 77 | blocked the upregulation | dose-dependent inhibition | dose-dependent inhibition | dose-dependent inhibition | block the expression of IP-10 | restricted to the highest dose |  |  | retained the majority of IFN-α dependent anti-viral activity
